Source: US20020137929A1, “1 - (3-heterocyclylphenyl) isothiourea, -isourea, -guanidine and -amidine herbicidal agents” (Intellectual Property Department, BASF Aktiengesellschaft, priority 1998, published 2002)

Assays:
[1] = test system: CASOB (Sicklepod); assay: Postemergence herbicidal evaluation; assay type: in vivo, Cassia obtusifolia; conditions: postemergence
Method in brief: (§1)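 Seedlings grown about two weeks were sprayed at 40 psi with compound dispersed in 50/50 acetone/water plus 0.5% TWEEN 20, at about 0.0156 to 0.500 kg/ha. Plants were kept in the greenhouse and scored 4–5 weeks later on a 0–9 visual scale against untreated controls.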

[2] = test system: CHEAL (Lambsquarters, Common); assay: Postemergence herbicidal evaluation; assay type: in vivo, Chenopodium album; conditions: postemergence
Method in brief: as §1

[3] = test system: ECHCG (Barnyardgrass); assay: Postemergence herbicidal evaluation; assay type: in vivo, Echinochloa crus-galli; conditions: postemergence
Method in brief: as §1

[4] = test system: ORYSAT (Rice, Tebonnet); assay: Postemergence herbicidal evaluation; assay type: in vivo, Oryza sativa, (L.) Tebonnet; conditions: postemergence
Method in brief: as §1

[5] = test system: GALAP (Galium); assay: Preemergence herbicidal evaluation; assay type: in vivo, Galium aparine; conditions: preemergence, rated 4-5 weeks after treatment, 0-9 scale
Method in brief: (§2)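 Scores (0–9) reflect visual comparison with control plants for stand, vigor, malformation, size and chlorosis. Compound was applied to the soil after sowing, before emergence, as an aqueous acetone spray (about 0.0156–0.500 kg/ha), and cups were kept in a greenhouse for 4–5 weeks.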

[6] = test system: SETVI (Foxtail, Green); assay: Preemergence herbicidal evaluation; assay type: in vivo, Setaria viridis; conditions: preemergence, rated 4-5 weeks after treatment, 0-9 scale
Method in brief: as §2

[7] = test system: GLXMAW (Soybean, Williams); assay: Preemergence herbicidal evaluation; assay type: in vivo, Glycine max, (L.) Merr. cv Williams; conditions: preemergence, rated 4-5 weeks after treatment, 0-9 scale
Method in brief: as §2

[8] = test system: ORYSAT (Rice, Tebonnet); assay: Preemergence herbicidal evaluation; assay type: in vivo, Oryza sativa, (L.) Tebonnet; conditions: preemergence, rated 4-5 weeks after treatment, 0-9 scale
Method in brief: as §2

[9] = test system: TRZAWR (Wheat, Winter, cv Riband); assay: Preemergence herbicidal evaluation; assay type: in vivo, Triticum aestivum; conditions: preemergence, rated 4-5 weeks after treatment, 0-9 scale
Method in brief: as §2

[10] = test system: ZEAMX (Corn, Field); assay: Preemergence herbicidal evaluation; assay type: in vivo, Zea mays; conditions: preemergence, rated 4-5 weeks after treatment, 0-9 scale
Method in brief: as §2

[11] = test system: CYPIR (Rice Flatsedge); assay: Preemergence weed control under flooded paddy conditions; assay type: in vivo, Cyperus iria; conditions: rated 3-4 weeks after treatment
Method in brief: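 Flooded-pot preemergence screen with silt loam and seeds in the upper 0.5 cm. Dose about 0.0313 to 0.500 kg/ha, delivered into flood water; visual 0-9 score after 3 to 4 weeks.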

[12] = test system: MOOVA (Monochoria); assay: as above; assay type: in vivo, Monochoria vaginalis; conditions: rated 3-4 weeks after treatment
Method in brief: (§3)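 Using flooded silt loam (water 1.5 to 3 cm deep), seeds sown in the top 0.5 cm were exposed preemergence to compound pipetted into the flood at about 0.0313 to 0.500 kg/ha. Effects were scored 0-9 by eye three to four weeks later.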

[13] = test system: SAGPY (Arrowhead (Pygmaea)); assay: as above; assay type: in vivo, Sagittaria pygmaea; conditions: rated 3-4 weeks after treatment
Method in brief: as §3

[14] = test system: CYPSE (Flatsedge); assay: Postemergence weed control under flooded paddy conditions; assay type: in vivo, Cyperus serotinus; conditions: postemergence weeds, rated 3 to 4 weeks after treatment
Method in brief: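 With weeds 3 to 5 cm tall and rice at the 1.5 to 2.5 leaf stage, containers were flooded and water held 1.5 to 3 cm above soil. Compounds in 50/50 v/v aqueous/acetone went into the flood water at about 0.0313 to 0.500 kg/ha a.i. Effects were visually rated 0–9 against controls after three to four weeks in the greenhouse.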

C#CCOC(=O)CC1SC(=Nc2cc(-n3c(=O)cc(C(F)(F)F)n(C)c3=O)c(F)cc2Cl)N(C)C1=O (centres unmarked) [Compound 90, 2-Propynyl 2-{{2-chloro-5-[3,6-dihydro-3-methyl-2,6-dioxo-4-(trifluoromethyl)-1(2H)-pyrimidinyl]-4-fluorophenyl}imino}-3-methyl-4-oxo-5-thiazolidineacetate]
9.0: CHEAL herbicidal rating ([2]; rate 0.0630 kg/ha) | ECHCG herbicidal rating ([3]; rate 0.0630 kg/ha) | SETVI rating ([6]; 0.1250 kg/ha) | SETVI rating ([6]; 0.2500 kg/ha) | GLXMAW rating ([7]; 0.2500 kg/ha) | ORYSAT rating ([8]; 0.2500 kg/ha) | MOOVA herbicidal effect rating ([12]; 0.0313 kg/ha) | MOOVA herbicidal effect rating ([12]; 0.0625 kg/ha) | MOOVA herbicidal effect rating ([12]; 0.1250 kg/ha) | MOOVA herbicidal effect rating ([12]; 0.2500 kg/ha) | SAGPY herbicidal effect rating ([13]; 0.1250 kg/ha) | SAGPY herbicidal effect rating ([13]; 0.2500 kg/ha)
6.5: ORYSAT herbicidal rating ([4]; rate 0.0315 kg/ha) | ORYSAT herbicidal rating ([4]; rate 0.0630 kg/ha)
6.0: SAGPY herbicidal effect rating ([13]; 0.0625 kg/ha)
1.0: CYPIR herbicidal effect rating ([11]; 0.1250 kg/ha)
0.0: GALAP rating ([5]; 0.0313 kg/ha) | GALAP rating ([5]; 0.0625 kg/ha) | SETVI rating ([6]; 0.0313 kg/ha) | GLXMAW rating ([7]; 0.0313 kg/ha) | ORYSAT rating ([8]; 0.0313 kg/ha) | ORYSAT rating ([8]; 0.0625 kg/ha) | TRZAWR rating ([9]; 0.0313 kg/ha) | TRZAWR rating ([9]; 0.0625 kg/ha) | ZEAMX rating ([10]; 0.0313 kg/ha) | ZEAMX rating ([10]; 0.0625 kg/ha) | CYPIR herbicidal effect rating ([11]; 0.0313 kg/ha) | CYPIR herbicidal effect rating ([11]; 0.0625 kg/ha) | Herbicidal rating CYPSE ([14]; Rate 0.0313 kg/ha) | Herbicidal rating CYPSE ([14]; Rate 0.0625 kg/ha) | Herbicidal rating CYPSE ([14]; Rate 0.1250 kg/ha)
5.0: CHEAL herbicidal rating ([2]; rate 0.0158 kg/ha) | ECHCG herbicidal rating ([3]; rate 0.0315 kg/ha)
3.0: CASOB herbicidal rating ([1]; rate 0.0315 kg/ha) | ECHCG herbicidal rating ([3]; rate 0.0158 kg/ha) | GALAP rating ([5]; 0.1250 kg/ha) | SETVI rating ([6]; 0.0625 kg/ha) | CYPIR herbicidal effect rating ([11]; 0.2500 kg/ha) | Herbicidal rating CYPSE ([14]; Rate 0.2500 kg/ha)
8.0: ZEAMX rating ([10]; 0.2500 kg/ha)
4.0: CASOB herbicidal rating ([1]; rate 0.0630 kg/ha) | ORYSAT herbicidal rating ([4]; rate 0.0158 kg/ha) | SAGPY herbicidal effect rating ([13]; 0.0313 kg/ha)
7.0: CHEAL herbicidal rating ([2]; rate 0.0315 kg/ha) | GALAP rating ([5]; 0.2500 kg/ha) | GLXMAW rating ([7]; 0.1250 kg/ha) | TRZAWR rating ([9]; 0.2500 kg/ha) | ZEAMX rating ([10]; 0.1250 kg/ha)
2.0: CASOB herbicidal rating ([1]; rate 0.0158 kg/ha) | GLXMAW rating ([7]; 0.0625 kg/ha) | ORYSAT rating ([8]; 0.1250 kg/ha) | TRZAWR rating ([9]; 0.1250 kg/ha)

CN1C(=O)C(CC(=O)Nc2ccccc2)SC1=Nc1cc(-n2c(=O)cc(C(F)(F)F)n(C)c2=O)c(F)cc1Cl (centres unmarked) [Compound 91, 2-{{2-Chloro-5-[3,6-dihydro-3-methyl-2,6-dioxo-4-(trifluoromethyl)-1(2H)-pyrimidinyl]-4-fluorophenyl}imino}-3-methyl-4-oxo-5-thiazolidineacetanilide]
1.0: ORYSAT herbicidal rating ([4]; rate 0.0158 kg/ha) | ORYSAT herbicidal rating ([4]; rate 0.0315 kg/ha)
4.0: CASOB herbicidal rating ([1]; rate 0.0630 kg/ha)
9.0: MOOVA herbicidal effect rating ([12]; 0.0313 kg/ha) | MOOVA herbicidal effect rating ([12]; 0.0625 kg/ha) | MOOVA herbicidal effect rating ([12]; 0.1250 kg/ha) | MOOVA herbicidal effect rating ([12]; 0.2500 kg/ha)
2.0: ORYSAT herbicidal rating ([4]; rate 0.0630 kg/ha)
3.0: CHEAL herbicidal rating ([2]; rate 0.0315 kg/ha) | CHEAL herbicidal rating ([2]; rate 0.0630 kg/ha)
0.0: CASOB herbicidal rating ([1]; rate 0.0158 kg/ha) | CASOB herbicidal rating ([1]; rate 0.0315 kg/ha) | CHEAL herbicidal rating ([2]; rate 0.0158 kg/ha) | ECHCG herbicidal rating ([3]; rate 0.0158 kg/ha) | ECHCG herbicidal rating ([3]; rate 0.0315 kg/ha) | ECHCG herbicidal rating ([3]; rate 0.0630 kg/ha) | GALAP rating ([5]; 0.1250 kg/ha) | GALAP rating ([5]; 0.2500 kg/ha) | SETVI rating ([6]; 0.1250 kg/ha) | SETVI rating ([6]; 0.2500 kg/ha) | GLXMAW rating ([7]; 0.1250 kg/ha) | GLXMAW rating ([7]; 0.2500 kg/ha) | ORYSAT rating ([8]; 0.1250 kg/ha) | ORYSAT rating ([8]; 0.2500 kg/ha) | TRZAWR rating ([9]; 0.1250 kg/ha) | TRZAWR rating ([9]; 0.2500 kg/ha) | ZEAMX rating ([10]; 0.1250 kg/ha) | ZEAMX rating ([10]; 0.2500 kg/ha) | CYPIR herbicidal effect rating ([11]; 0.0313 kg/ha) | CYPIR herbicidal effect rating ([11]; 0.0625 kg/ha) | CYPIR herbicidal effect rating ([11]; 0.1250 kg/ha) | CYPIR herbicidal effect rating ([11]; 0.2500 kg/ha) | SAGPY herbicidal effect rating ([13]; 0.0313 kg/ha) | SAGPY herbicidal effect rating ([13]; 0.0625 kg/ha) | SAGPY herbicidal effect rating ([13]; 0.1250 kg/ha) | SAGPY herbicidal effect rating ([13]; 0.2500 kg/ha) | Herbicidal rating CYPSE ([14]; Rate 0.0313 kg/ha) | Herbicidal rating CYPSE ([14]; Rate 0.0625 kg/ha) | Herbicidal rating CYPSE ([14]; Rate 0.1250 kg/ha) | Herbicidal rating CYPSE ([14]; Rate 0.2500 kg/ha)
